These results are taken from publication PMC7581279 (Journal of medicinal chemistry, 2013).

By IC50 is commonly meant the concentration at which inhibition is half-maximal.

The target in test [1] is HIV-1 RT-associated RNase H activity (Human immunodeficiency virus type 1 group M subtype B, UniProt P04585). Description: biochemical.
The test system of test [2] is HIV-1 (IIIB) in MT-4 cells. Particulars: HIV-1-induced cytopathic effect in MT-4 cells. (Cytopathic effects are the visible damage that an infection or toxin causes in cultured cells.)
For test [3], the system named is RT-associated DNA polymerase function. Particulars: cited from earlier work.
Test [4] addresses recombinant HIV-1 IN ST activity (Human immunodeficiency virus type 1 group M subtype B, UniProt P04585). The experiment in a line: biochemical.

Consider `CCOC(=O)C(=O)CC(=O)/C=C/c1cccn1Cc1ccccc1OCC` [7o, 6-[1-(2-Ethoxyphenyl)methyl-1H-pyrrol-2-yl]-2,4-dioxo-5-hexenoic Acid Ethyl Ester], for which the IC50 in test [1] is > 100 µM.

As to `CCOC(=O)C(=O)CC(=O)/C=C/c1cccn1Cc1ccccc1OC` [7m, 6-[1-(2-Methoxyphenyl)methyl-1H-pyrrol-2-yl]-2,4-dioxo-5-hexenoic Acid Ethyl Ester], the IC50 in test [1] is > 100 µM.

On to `CCOC(=O)C(=O)CC(=O)/C=C/c1cccn1Cc1ccccc1F` [7e, 6-[1-(2-Fluorophenyl)methyl-1H-pyrrol-2-yl]-2,4-dioxo-5-hexenoic Acid Ethyl Ester], for which, in test [2], the “activity in the CPE assay” value was “antiviral”.

Consider `CCOC(=O)C(=O)CC(=O)/C=C/c1cccn1Cc1cccc(F)c1` [7f, 6-[1-(3-Fluorophenyl)methyl-1H-pyrrol-2-yl]-2,4-dioxo-5-hexenoic Acid Ethyl Ester], for which, in test [2], the “activity in the CPE assay” value was “antiviral”.

For `CCOC(=O)C(=O)CC(=O)/C=C/c1cccn1Cc1ccc(F)cc1` [7g, 6-[1-(4-Fluorophenyl)methyl-1H-pyrrol-2-yl]-2,4-dioxo-5-hexenoic Acid Ethyl Ester], the “activity in the CPE assay” value in test [2] was “antiviral”. For the same molecule, the “activity against RT-associated DNA polymerase function” value in test [3] is “inactive”.

Regarding `O=C(/C=C/c1cccn1Cc1ccc(Cl)cc1)CC(=O)C(=O)O` [8i, 6-[1-(4-Chlorophenyl)methyl-1H-pyrrol-2-yl]-2,4-dioxo-5-hexenoic Acid], in test [2], the “activity in the CPE assay” value was “inactive”.

With `CCOC(=O)C(=O)CC(=O)/C=C/c1cccn1Cc1ccccc1` [7a, 6-[1-(Phenyl)methyl-1H-pyrrol-2-yl]-2,4-dioxo-5-hexenoic Acid Ethyl Ester], in test [2], the “activity in the CPE assay” value is recorded as “antiviral”.

`O=C(/C=C/c1cccn1Cc1ccc(F)cc1)CC(=O)C(=O)O` [8g, 6-[1-(4-Fluorophenyl)methyl-1H-pyrrol-2-yl]-2,4-dioxo-5-hexenoic Acid]: in test [2], the “activity in the CPE assay” value is on record as “antiviral”.

As for `CCOC(=O)C(=O)CC(=O)/C=C/c1cccn1Cc1ccc(Cl)cc1Cl` [7w, 6-[1-(2,4-Dichlorophenyl)methyl-1H-pyrrol-2-yl]-2,4-dioxo-5-hexenoic Acid Ethyl Ester], in test [4], the half-inhibitory concentration (IC50) is > 111 µM.

Turning to `O=C(/C=C/c1cccn1Cc1ccccc1)CC(=O)C(=O)O` [8a, 6-[1-(Phenyl)methyl-1H-pyrrol-2-yl]-2,4-dioxo-5-hexenoic Acid], the “activity in the CPE assay” value in test [2] is reported as “antiviral”.

Regarding `CCOC(=O)C(=O)CC(=O)/C=C/c1cccn1Cc1ccc(C#N)cc1` [7l, 6-[1-(4-Cyanophenyl)methyl-1H-pyrrol-2-yl]-2,4-dioxo-5-hexenoic Acid Ethyl Ester], the IC50 in test [4] was > 111 µM.
